Values joined by “and” are separate entries in the source; they are usually repeats but may differ in a detail not shown here. Equal entries are not always repeated. “Also recorded” adds a separate entry of the source. Marks after values point to notes of the source that are not given here.
Key:
Nx mice [1] = experiment: Subtotal nephrectomy (Nx) mouse model of CKD, curative study, renal histopathology (Example 1); format: in vivo
From the text: (§1) Analysis has been focused on an experimental model of CKD, i.e. the subtotal nephrectomy (Nx). In this model, a “curative study” was investigated, i.e. treatments have been initiated 5 weeks after Nx, when lesions are already developed. 42 nine-week old FVB female mice have been investigated, of which 6 have been submitted to sham operation (controls) and 36 to subtotal nephrectomy (Nx), which consist in the excision of the right kidney and the two poles of the left kidney to reach 75% reduction of total renal mass. Surgery was performed under xylazine (Rompun 2%; Bayer, Leverkusen, France) (6 μg/g of body weight) and ketamine (Clorketam 1000; Vetoquinol SA, Lirre, France) (120 μg/g of body weight) anesthesia.
After 5 weeks, mice have been divided into 4 groups: • Sham mice treated with the vehicle (n=6) • Nx mice treated with the vehicle (n=10) • Nx mice treated with dEF2572 FXR agonist (4-bromo-5-[4-(2,6-dichloro-benzenesulfonyl)-piperazin-1-yl]-benzofuran-2-carboxylic acid) at 100 mg/Kg/day (n=11) • Nx mice treated with Nidufexor (LMB763) FXR agonist at 30 mg/Kg/day (n=10)
Compounds have been administered once a day (QD) per oral gavage.
Mice have been sacrificed 3 weeks later. Blood has been collected just before sacrifice. At sacrifice, kidneys have been harvested for morphological and mRNA analyses.
Kidneys were fixed in 4% paraformaldehyde, paraffin embedded, and 4-μm sections were stained with Periodic acid-Schiff (PAS), Masson's trichrome, Hematoxylin and eosin, and picrosirius red (PSR). Images were acquired using a Nikon Digital Camera Dx/m/1200. All sections were evaluated by a pathologist who was blinded to the treatment groups.
The degree of glomerular lesions was evaluated on Periodic acid-Schiff (PAS) staining using a semi-quantitative score methodology. Briefly, 40-60 glomeruli per mouse were scored at a magnification of ×400, using the following scoring system: 0=no lesion, 1=mild sclerosis, interesting 10-25% of the glomerulus, 2=moderate sclerosis, interesting 25%-50% of the glomerulus, 3=severe sclerosis interesting 50%-75% of the glomerulus, and 4=global sclerosis interesting >75% of the glomerulus. The results were expressed as the mean of the scores of 40-60 glomeruli per mouse.
The degree of tubular dilations was automatically quantified on PAS staining using Image J/Fiji software, version 2.1.0. The extent of interstitial fibrosis was also quantified using Image J/Fiji software. Staining of all kidney samples with picrosirius red (PSR) was performed simultaneously, and red intensity above a defined threshold was defined as fibrosis. For tubular dilations and interstitial fibrosis, at least 10 to 15 random selected fields (magnification ×200) across the corticomedullary junction were analyzed per each kidney section, and the results were expressed as percentages of the total area of the selected fields.

[2] = system: FXR target genes (OSTA and OSTB); experiment: Renal OSTA and OSTB mRNA levels by quantitative RT-PCR in Nx mice (Example 1); format: in vivo, mouse; conditions: Nx mice kidneys
Method: Mice were subjected to a subtotal nephrectomy (Nx). Treatments were initiated 5 weeks after Nx for a duration of 3 weeks. Kidneys were collected at sacrifice, and OSTA and OSTB mRNA levels were assessed by quantitative RT-PCR. p-values are indicated on the graphs.
as §1
After 5 weeks, mice have been divided into 4 groups: • Sham mice treated with the vehicle (n=6) • Nx mice treated with the vehicle (n=10) • Nx mice treated with dEF2572 FXR agonist (4-bromo-5-[4-(2,6-dichloro-benzenesulfonyl)-piperazin-1-yl]-benzofuran-2-carboxylic acid) at 100 mg/Kg/day (n=11) • Nx mice treated with Nidufexor (LMB763) FXR agonist at 30 mg/Kg/day (n=10) […]

Nx mice [3] = experiment: Subtotal nephrectomy (Nx) mouse model of CKD, curative study, interstitial fibrosis by PSR (Example 2); format: in vivo; conditions: initiated 5 weeks after Nx
From the text: Analysis has been focused on an experimental model of CKD, i.e. the subtotal nephrectomy (Nx). In this model, a “curative study” was investigated, i.e. treatments have been initiated 5 weeks after Nx, when lesions are already developed.
54 nine-week old FVB female mice have been investigated, of which 6 have been submitted to sham operation (controls) and 48 to subtotal nephrectomy (Nx), which consist in the excision of the right kidney and the two poles of the left kidney to reach 75% reduction of total renal mass. Surgery was performed under xylazine (Rompun 2%; Bayer, Leverkusen, France) (6 μg/g of body weight) and ketamine (Clorketam 1000; Vetoquinol SA, Lirre, France) (120 μg/g of body weight) anesthesia. […]
Kidneys were fixed in 4% paraformaldehyde, paraffin embedded, and 4-μm sections were stained with picrosirius red (PSR). […] All sections were evaluated by a pathologist who was blinded to the treatment groups.
Staining of all kidney samples with picrosirius red (PSR) was performed, and red intensity above a defined threshold was defined as fibrosis. For interstitial fibrosis, at least 10 to 15 random selected fields (magnification ×200) across the corticomedullary junction were analyzed per each kidney section, and the results were expressed as percentages of the total area of the selected fields.

NASH patients = experiment: Randomized, double-blind, placebo-controlled Livify NASH trial (Phase 2a); format: in vivo, human; conditions: for ALT, absolute change (IU/L) / Alpha-2-Macroglobulin, absolute change (mg/dL) / Body Weight, absolute change (kg) / Change Relative LFC, % / GGT, absolute change (IU/L) / Waist-to-Hip Ratio, absolute change / cT1, absolute change (msec) / eGFR, absolute change (mL/min/1.73 m^2) / Change Absolute LFC, %: change from baseline to W12, mean (SD); for Change Absolute LFC, %: MRI-PDFF
Method: Vonafexor has anti-fibrotic effects in NASH and Chronic Kidney Disease (CKD) models. Up to 64% of NASH patients have decreased estimated glomerular filtration rate (eGFR <90 mL/min/1.73 m^2) which can evolve into CKD. […] 96 patients were randomized 1:1:1 to daily oral Placebo (PBO, n=32) or VONA (Vonafexor) 100 mg (n=31) or 200 mg (n=33) for 12 weeks (W12). Inclusion criteria required phenotypic stage 2 or 3 fibrosis NASH with an absolute liver fat content (LFC by MRI-PDFF) ≥10% and liver stiffness by transient elastography [LSTE]≥8.5 kPa or previous biopsy-proven NASH. Randomization was stratified by diabetes and LFC.

[4] = 100 mg/Kg/day QD oral gavage for 3 weeks, initiated 5 weeks after Nx
[5] = 100 mg/Kg/day QD oral gavage for 3 weeks, 100 mg/kg/day
[6] = 30 mg/Kg/day QD oral gavage for 3 weeks, 30 mg/kg/day

## O=C(O)c1cc2c(Br)c(N3CCN(S(=O)(=O)c4c(Cl)cccc4Cl)CC3)ccc2o1 [dEF2572, 4-bromo-5-[4-(2,6-dichloro-benzenesulfonyl)-piperazin-1-yl]-benzofuran-2-carboxylic acid]
Nx mice [1]; [4]
  renal glomerular lesions (semi-quantitative score): significantly decreases
  renal interstitial fibrosis (picrosirius red staining positive areas): significantly decreases
  renal tubular dilatation (PAS staining): significantly decreases
[2]; [5]
  renal expression of FXR target genes OSTA and OSTB (mRNA): strong renal FXR target engagement; also recorded: significantly increase

## O=C(O)c1cc2c(Cl)c(N3CCN(S(=O)(=O)c4c(Cl)cccc4Cl)CC3)ccc2o1 [Vonafexor, 4-chloro-5-[4-(2,6-dichloro-benzenesulfonyl)-piperazin-1-yl]-benzofuran-2-carboxylic acid]
Nx mice [3]; [5]
  renal interstitial fibrosis (picrosirius red staining positive areas): significantly decreases; also recorded: significantly better than OCA; also recorded: higher beneficial effects than Losartan
NASH patients; 100 mg
  patients discontinued participation due to pruritus: 9%
NASH patients; 100 mg arm, p<0.001 vs PBO
  liver fibro-inflammation marker cT1 (Liver Multiscan) reduced by: 81 ms
NASH patients; 100 mg daily oral, W12
  % Patients >88 msec absolute reduction (cT1): 36% *
  % Patients with >30% absolute reduction (LFC): 50% §
  % Patients with >−17 IU/L reduction (ALT): 52% §
  % Patients with any eGFR increase: 76% §
NASH patients; 100 mg daily oral
  ALT, absolute change (IU/L): −19.3 (3.2) § IU/L
  Alpha-2-Macroglobulin, absolute change (mg/dL): −25.9 (4.3) #, § mg/dL
  Body Weight, absolute change (kg): −1.7 (0.5) #,§ kg
  Change Relative LFC, %: −30.0 (4.7) #, § %
  GGT, absolute change (IU/L): −40.6 (3.3) #, § IU/L
  Waist-to-Hip Ratio, absolute change: −0.02 (0.0) #, §
  cT1, absolute change (msec): −80.6 (15.4) #, § msec
  eGFR, absolute change (mL/min/1.73 m^2): +6.0 (9.5) #, § mL/min/1.73 m^2
  Change Absolute LFC, %: −6.3% and −6.3 (0.9) #, § %
NASH patients; 100 mg group
  non-drug related severe adverse events (number): 2
NASH patients; 100 mg or 200 mg treated subjects, 12 weeks
  mean improvement in eGFR: +5.6 mL/min/1.73 m^2
NASH patients; 100 mg treated subjects, 12-week treatment period
  patients with an eGFR increase >0.1 mL/min/1.73 m: 76%
NASH patients; 200 mg daily oral, W12
  % Patients >88 msec absolute reduction (cT1): 36% *
  % Patients with >5% absolute LFC reduction: 43% §
  % Patients with >30% absolute reduction (LFC): 39% §
  % Patients with >−17 IU/L reduction (ALT): 36%
  % Patients with any eGFR increase: 65% §
NASH patients; 200 mg daily oral
  ALT, absolute change (IU/L): −10.8 (3.3) IU/L
  Alpha-2-Macroglobulin, absolute change (mg/dL): −18.4 (4.5) #, § mg/dL
  Body Weight, absolute change (kg): −2.5 (0.5) #, § kg
  Change Relative LFC, %: −25.5 (4.6) #, § %
  GGT, absolute change (IU/L): −34.1 (3.3) #, § IU/L
  Waist-to-Hip Ratio, absolute change: −0.01 (0.0)
  cT1, absolute change (msec): −71.9 (14.2) #, § msec
  eGFR, absolute change (mL/min/1.73 m^2): +2.5 (14.5) #, § mL/min/1.73 m^2
  Change Absolute LFC, %: −5.5% and −5.5 (0.9) #, § %
NASH patients; 200 mg group
  non-drug related severe adverse events (number): 2
NASH patients; NASH patients, 100 mg or 200 mg daily for 12 weeks
  overall safety and tolerability: safe and well tolerated
NASH patients; NASH patients, 12 weeks
  ALT increases Grade 2: No ALT increases Grade 2
  increase in low density lipoprotein-cholesterol (LDL-C): 34%
NASH patients; NASH patients, reduction correlated with eGFR improvement (p<0.05)
  alpha-2-Macroglobulin (A2M) plasma levels: reduced
NASH patients; VONA treatment (dose not stated), 12 weeks
  mean reduction in ALT: 26%
NASH patients; VONA-treated (dose not stated), W12
  patients achieving relative LFC reduction of >30%: 50%
NASH patients; VONA-treated subjects (dose not stated), p<0.001
  mean reduction in GGT: 42%

## Cn1nc(C(=O)N(Cc2ccccc2)Cc2ccc(C(=O)O)cc2)c2c1-c1cc(Cl)ccc1OC2 [Nidufexor]
Nx mice [1]; 30 mg/Kg/day QD oral gavage for 3 weeks (FIG. 1)
  interstitial fibrosis: no significant effect
Nx mice [1]; 30 mg/Kg/day QD oral gavage for 3 weeks, initiated 5 weeks after Nx
  beneficial effects on the kidneys (interstitial fibrosis, tubular dilatation, glomerular lesions): not observed
[2]; [6]
  renal expression of FXR target genes OSTA and OSTB (mRNA): strong renal FXR target engagement; also recorded: more powerful FXR agonist than the identified compounds; also recorded: significantly increase

## CC[C@H]1[C@@H](O)[C@@H]2[C@H](CC[C@]3(C)[C@@H]([C@H](C)CCC(=O)O)CC[C@@H]23)[C@@]2(C)CC[C@@H](O)C[C@@H]12 [Obeticholic acid, reference compound]
Nx mice [3]; [6]
  renal interstitial fibrosis (picrosirius red staining positive areas): no significant effect

— patent publication US20230165853A1, “METHOD FOR TREATING CHRONIC KIDNEY DISEASES” (ENYO PHARMA, priority 2021, published 2023)
